Measured values taken from ChEMBL document CHEMBL1201862, “PubChem BioAssay data set” (2004).
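Values below derive from 48-hour exposures of cells grown in 96-well plates, with endpoints linearly interpolated between the two concentrations bracketing the appropriate inhibition level. GI50: concentration for 50% inhibition of growth.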 The source made the active and inactive calls. Cut-off read from the data, not from the text of the source: active = GI50 up to about 1.1 µM and inactive = higher.

Key:
Assay in all cases: NCI anticancer screen, dose series, 48 h
SNB-75 = tested on: SNB-75
SN12C = tested on: SN12C
SF-295 = tested on: SF-295
NCI-H226 = tested on: NCI-H226
LOX IMVI = tested on: LOX IMVI
LXFL 529 = tested on: LXFL 529
786-0 = tested on: 786-0
DLD-1 = tested on: DLD-1
CAKI-1 = tested on: CAKI-1
XF498 = tested on: XF498
CCRF-CEM = tested on: CCRF-CEM
SK-MEL-28 = tested on: SK-MEL-28
SNB-19 = tested on: SNB-19
UACC-62 = tested on: UACC-62
RXF 393 = tested on: RXF 393
M19-MEL = tested on: M19-MEL
EKVX = tested on: EKVX
DMS-114 = tested on: DMS-114
K562 = tested on: K562
SW-620 = tested on: SW-620
COLO 205 = tested on: COLO 205
OVCAR-8 = tested on: OVCAR-8
HL-60 = tested on: HL-60
SK-OV-3 = tested on: SK-OV-3
NCI-H460 = tested on: NCI-H460
NCI-H522 = tested on: NCI-H522
OVCAR-5 = tested on: OVCAR-5
NCI-H23 = tested on: NCI-H23
Malme-3M = tested on: Malme-3M
TK-10 = tested on: TK-10
HOP-62 = tested on: HOP-62
KM12 = tested on: KM12
HCC 2998 = tested on: HCC 2998
UO-31 = tested on: UO-31
OVCAR-4 = tested on: OVCAR-4
OVCAR-3 = tested on: OVCAR-3
HCT-15 = tested on: HCT-15
RXF 631 = tested on: RXF 631
UACC-257 = tested on: UACC-257
SF-268 = tested on: SF-268
A498 = tested on: A498
SK-MEL-5 = tested on: SK-MEL-5
ACHN = tested on: ACHN
DMS-273 = tested on: DMS-273
HOP-92 = tested on: HOP-92
HT-29 = tested on: HT-29
SK-MEL-2 = tested on: SK-MEL-2
M14 = tested on: M14
A549 = tested on: A549
RPMI-8226 = tested on: RPMI-8226
KM-20L2 = tested on: KM-20L2
IGROV-1 = tested on: IGROV-1
U-251 = tested on: U-251

## C#CCOCn1cnc2c(S)ncnc21
SNB-75
  GI50: 13.6 µM (inactive)
SN12C
  GI50: > 100 µM (inactive)
SF-295
  GI50: > 100 µM (inactive)
NCI-H226
  GI50: > 100 µM (inactive)
LOX IMVI
  GI50: > 100 µM (inactive)
LXFL 529
  GI50: > 100 µM (inactive)
786-0
  GI50: > 100 µM (inactive)
DLD-1
  GI50: > 100 µM (inactive)
CAKI-1
  GI50: > 100 µM (inactive)
XF498
  GI50: > 100 µM (inactive)
CCRF-CEM
  GI50: > 100 µM (inactive)
SK-MEL-28
  GI50: > 100 µM (inactive)
SNB-19
  GI50: > 100 µM (inactive)
UACC-62
  GI50: > 100 µM (inactive)
RXF 393
  GI50: > 100 µM (inactive)
M19-MEL
  GI50: > 100 µM (inactive)
EKVX
  GI50: > 100 µM (inactive)
DMS-114
  GI50: > 100 µM (inactive)
K562
  GI50: > 100 µM (inactive)
SW-620
  GI50: > 100 µM (inactive)
COLO 205
  GI50: > 100 µM (inactive)
OVCAR-8
  GI50: > 100 µM (inactive)
HL-60
  GI50: > 100 µM (inactive)
SK-OV-3
  GI50: > 100 µM (inactive)
NCI-H460
  GI50: > 100 µM (inactive)
NCI-H522
  GI50: > 100 µM (inactive)
OVCAR-5
  GI50: > 100 µM (inactive)
NCI-H23
  GI50: > 100 µM (inactive)
Malme-3M
  GI50: > 100 µM (inactive)
TK-10
  GI50: > 100 µM (inactive)
HOP-62
  GI50: > 100 µM (inactive)
KM12
  GI50: > 100 µM (inactive)
HCC 2998
  GI50: > 100 µM (inactive)
UO-31
  GI50: > 100 µM (inactive)
OVCAR-4
  GI50: > 100 µM (inactive)
OVCAR-3
  GI50: > 100 µM (inactive)
HCT-15
  GI50: > 100 µM
RXF 631
  GI50: > 100 µM (inactive)
UACC-257
  GI50: > 100 µM (inactive)
SF-268
  GI50: > 100 µM (inactive)
A498
  GI50: > 100 µM (inactive)
SK-MEL-5
  GI50: > 100 µM (inactive)
ACHN
  GI50: > 100 µM (inactive)
DMS-273
  GI50: > 100 µM (inactive)
HOP-92
  GI50: > 100 µM (inactive)
HT-29
  GI50: > 100 µM (inactive)
SK-MEL-2
  GI50: > 100 µM (inactive)
M14
  GI50: > 100 µM (inactive)
A549
  GI50: > 100 µM (inactive)
RPMI-8226
  GI50: > 100 µM (inactive)
KM-20L2
  GI50: > 100 µM (inactive)
IGROV-1
  GI50: > 100 µM (inactive)
U-251
  GI50: > 100 µM (inactive)
